Experimental data published in patent publication US20070128217A1 (priority 2003, published 2007).

What was measured:
[1] = test system: antibodies in sera from SARS patients (sera 1a, 1b, 2, 6, 37, 62, London, SARS-yellow, SARS-green); format: binding, human; parameters: Binding of serum 6 to linear peptides of protein X1 of SARS-CoV Urbani / Binding of serum 37 to linear peptides of protein X1 of SARS-CoV Urbani / Binding of serum 6 to looped/cyclic peptide (PEPSCAN-ELISA) / Binding of serum 37 to looped/cyclic peptide (PEPSCAN-ELISA) / Binding of serum 37 to looped/cyclic peptides of protein X1 of SARS-CoV Urbani / Binding of serum 6 to linear peptides of protein X2 / Binding of serum 37 to linear peptides of protein X2 / Binding of serum 37 to looped/cyclic peptides of protein X2 of SARS-CoV Urbani / Binding of serum 6 to linear peptides of protein M of SARS-CoV Urbani / Binding of serum 37 to linear peptides of protein M of SARS-CoV Urbani / Binding of serum 6 to looped/cyclic peptides of protein M of SARS-CoV Urbani / Binding of serum 37 to looped/cyclic peptides of protein M of SARS-CoV Urbani / Binding of serum 6 to linear peptides of protein X3 of SARS-CoV Urbani / Binding of serum 37 to linear peptides of protein X3 of SARS-CoV Urbani / Binding of serum 37 to looped/cyclic peptides of protein X3 of SARS-CoV Urbani / Binding of serum 6 to linear peptides of protein X4 of SARS-CoV Urbani / Binding of serum 37 to linear peptides of protein X4 of SARS-CoV Urbani / Binding of serum 37 to looped/cyclic peptides of protein X4 of SARS-CoV Urbani / Binding of serum 6 to linear peptides of protein X5 of SARS-CoV Urbani / Binding of serum 37 to linear peptides of protein X5 of SARS-CoV Urbani / Binding of serum 37 to looped/cyclic peptides of protein X5 of SARS-CoV Urbani / Binding of serum 6 to linear peptides of protein N of SARS-CoV Urbani / Binding of serum 37 to linear peptides of protein N of SARS-CoV Urbani / Binding of serum 6 to linear peptide (PEPSCAN-ELISA) / Binding of serum 1a to looped/cyclic peptides of protein N of SARS-CoV Urbani / Binding of serum 1b to looped/cyclic peptides of protein N of SARS-CoV Urbani / Binding of serum 2 to looped/cyclic peptides of protein N of SARS-CoV Urbani / Binding of serum 6 to looped/cyclic peptides of protein N of SARS-CoV Urbani / Binding of serum 37 to looped/cyclic peptides of protein N of SARS-CoV Urbani / Binding of serum 62 to looped/cyclic peptides of protein N of SARS-CoV Urbani / Binding of serum London to looped/cyclic peptides of protein N of SARS-CoV Urbani / Binding of serum SARS-green to looped/cyclic peptides of protein N of SARS-CoV Urbani: unit not given here
[2] = test system: control sera (pooled serum of ten healthy LUMC hospital workers; commercial negative donor pooled serum from the Dutch bloodbank); format: binding, human; parameters: Binding of Control serum LUMC to linear peptides / Binding of Control serum Blood-bank to linear peptides / Binding of Control serum LUMC to looped peptides / Binding of Control Serum Blood-Bank to Looped peptides / Binding of Control serum LUMC to linear peptides of the protein M of SARS-CoV Urbani / Binding of Control serum Blood-bank to linear peptides of the protein M of SARS-CoV Urbani / Binding of Control serum LUMC to looped peptides of the protein M of SARS-CoV Urbani / Binding of Control Serum Blood-Bank to Looped peptides of the protein M of SARS-CoV Urbani: unit not given here
[3] = test system: rabbit serum obtained by immunizing a rabbit with the SARS-CoV strain Frankfurt 1; format: binding; parameters: Binding of a rabbit serum to linear peptides / Binding of a rabbit serum to looped peptides / Rabbit serum linear peptides / Rabbit serum looped peptides / Binding of a rabbit serum to linear peptides of protein N of SARS-CoV Urbani (Rabbit serum linear peptides) / Binding of a rabbit serum to looped/cyclic peptides of protein N of SARS-CoV Urbani (Rabbit serum looped peptides): unit not given here

| Sequence | Binding of serum 1a to looped/cyclic peptides of protein X2 of SARS-CoV Urbani [1] | Binding of serum 1b to looped/cyclic peptides of protein X2 of SARS-CoV Urbani [1] | Binding of serum 2 to looped/cyclic peptides of protein X2 of SARS-CoV Urbani [1] | Binding of serum 6 to looped/cyclic peptides of protein X2 of SARS-CoV Urbani [1] | Binding of serum 37 to looped/cyclic peptides of protein X2 of SARS-CoV Urbani [1] | Binding of serum 62 to looped/cyclic peptides of protein X2 of SARS-CoV Urbani [1] | Binding of serum London to looped/cyclic peptides of protein X2 of SARS-CoV Urbani [1] | Binding of serum SARS-green to looped/cyclic peptides of protein X2 of SARS-CoV Urbani [1] | Binding of serum SARS-yellow to looped/cyclic peptides of protein X2 of SARS-CoV Urbani [1] | Recognition of the peptide by sera of SARS-CoV infected individuals, and form (linear, looped/cyclic) in which it is recognized [1] | Binding of Control Serum Blood-Bank to Looped peptides [2] | Binding of Control serum Blood-bank to linear peptides [2] | Binding of Control serum LUMC to linear peptides [2] | Binding of Control serum LUMC to looped peptides [2] | Binding of a rabbit serum to linear peptides [3] | Binding of a rabbit serum to looped peptides [3] | Binding of serum 1a to linear peptides of protein X2 [1] | Binding of serum 1b to linear peptides of protein X2 [1] | Binding of serum 2 to linear peptides of protein X2 [1] | Binding of serum 6 to linear peptides of protein X2 [1] | further results |
| --- | --- | --- | --- | --- | --- | --- | --- | --- | --- | --- | --- | --- | --- | --- | --- | --- | --- | --- | --- | --- | --- |
| KVSTNLCTHSFRKKQ | 0.4 | 0.3 | 0.5 | 0.5 | 0.4 | 0.6 | 0.2 | 0.3 | 0.5 | recognized in linear form | 0.4 | 1.0 | 0.8 | 0.7 | 0.3 | 0.1 | – | – | – | – | – |
| KVTAFQHQNSKKTTK | 0.2 | 0.2 | 0.0 | 0.0 | 0.2 | 0.3 | 0.1 | 0.0 | 0.1 | – | 0.3 | 0.2 | 0.3 | 0.3 | 0.6 | 0.2 | 0.3 | 0.2 | 0.2 | 0.2 | Binding of serum 37 to linear peptides of protein X2 [1]: 0.3; Binding of serum 62 to linear peptides of protein X2 [1]: 0.2; Binding of serum London to linear peptides of protein X2 [1]: 0.1; Binding of serum SARS-green to linear peptides of protein X2 [1]: 0.0; Binding of serum SARS-yellow to linear peptides of protein X2 [1]: 0.4 |
| KYTQSTALQELLIQQ | 0.8 | 1.0 | 0.7 | 0.7 | 0.8 | 1.0 | 0.5 | 0.9 | 0.8 | – | 0.9 | 0.6 | 0.5 | 1.0 | 0.4 | 0.4 | 0.7 | 0.6 | 0.4 | 0.5 | Binding of serum 37 to linear peptides of protein X2 [1]: 0.6; Binding of serum 62 to linear peptides of protein X2 [1]: 0.6; Binding of serum London to linear peptides of protein X2 [1]: 0.5; Binding of serum SARS-green to linear peptides of protein X2 [1]: 0.6; Binding of serum SARS-yellow to linear peptides of protein X2 [1]: 0.6 |
| LACLCKHKKVSTNLC | 0.3 | 0.3 | 0.2 | 0.2 | 0.3 | 0.4 | 0.2 | 0.2 | 0.3 | recognized in linear form | 0.3 | 0.8 | 0.7 | 0.4 | 0.3 | 0.3 | – | – | – | – | – |
| LALYKGFQFICNLLL | – | – | – | – | – | – | – | – | – | – | 0.6 | 0.6 | 0.5 | 0.6 | 0.2 | 0.6 | – | – | – | – | Binding of serum 1a to linear peptides of protein X1 of SARS-CoV Urbani [1]: 0.7; Binding of serum 1a to looped/cyclic peptide (PEPSCAN-ELISA) [1]: 0.5; Binding of serum 1b to linear peptides of protein X1 of SARS-CoV Urbani [1]: 0.5; Binding of serum 1b to looped/cyclic peptide (PEPSCAN-ELISA) [1]: 0.3; Binding of serum 2 to linear peptides of protein X1 of SARS-CoV Urbani [1]: 0.5; Binding of serum 2 to looped/cyclic peptide (PEPSCAN-ELISA) [1]: 0.4; Binding of serum 6 to linear peptides of protein X1 of SARS-CoV Urbani [1]: 0.4; Binding of serum 6 to looped/cyclic peptide (PEPSCAN-ELISA) [1]: 1.4; Binding of serum 37 to linear peptides of protein X1 of SARS-CoV Urbani [1]: 0.5; Binding of serum 37 to looped/cyclic peptide (PEPSCAN-ELISA) [1]: 0.5; Binding of serum 62 to linear peptides of protein X1 of SARS-CoV Urbani [1]: 0.6; Binding of serum 62 to looped/cyclic peptide (PEPSCAN-ELISA) [1]: 0.5; Binding of serum London to linear peptides of protein X1 of SARS-CoV Urbani [1]: 0.2; Binding of serum London to looped/cyclic peptide (PEPSCAN-ELISA) [1]: 1.4; Binding of serum SARS-green to linear peptides of protein X1 of SARS-CoV Urbani [1]: 0.2; Binding of serum SARS-green to looped/cyclic peptide (PEPSCAN-ELISA) [1]: 0.2; Binding of serum SARS-yellow to linear peptides of protein X1 of SARS-CoV Urbani [1]: 0.5; Binding of serum SARS-yellow to looped/cyclic peptide (PEPSCAN-ELISA) [1]: 0.5 |
